Target: PDE4D (Homo sapiens, UniProt Q08499)
Test: in vitro PDE4D inhibition assay, liquid scintillation counting, three independent experiments
Type: biochemical

Sequence of PDE4D (Q08499 whole entry): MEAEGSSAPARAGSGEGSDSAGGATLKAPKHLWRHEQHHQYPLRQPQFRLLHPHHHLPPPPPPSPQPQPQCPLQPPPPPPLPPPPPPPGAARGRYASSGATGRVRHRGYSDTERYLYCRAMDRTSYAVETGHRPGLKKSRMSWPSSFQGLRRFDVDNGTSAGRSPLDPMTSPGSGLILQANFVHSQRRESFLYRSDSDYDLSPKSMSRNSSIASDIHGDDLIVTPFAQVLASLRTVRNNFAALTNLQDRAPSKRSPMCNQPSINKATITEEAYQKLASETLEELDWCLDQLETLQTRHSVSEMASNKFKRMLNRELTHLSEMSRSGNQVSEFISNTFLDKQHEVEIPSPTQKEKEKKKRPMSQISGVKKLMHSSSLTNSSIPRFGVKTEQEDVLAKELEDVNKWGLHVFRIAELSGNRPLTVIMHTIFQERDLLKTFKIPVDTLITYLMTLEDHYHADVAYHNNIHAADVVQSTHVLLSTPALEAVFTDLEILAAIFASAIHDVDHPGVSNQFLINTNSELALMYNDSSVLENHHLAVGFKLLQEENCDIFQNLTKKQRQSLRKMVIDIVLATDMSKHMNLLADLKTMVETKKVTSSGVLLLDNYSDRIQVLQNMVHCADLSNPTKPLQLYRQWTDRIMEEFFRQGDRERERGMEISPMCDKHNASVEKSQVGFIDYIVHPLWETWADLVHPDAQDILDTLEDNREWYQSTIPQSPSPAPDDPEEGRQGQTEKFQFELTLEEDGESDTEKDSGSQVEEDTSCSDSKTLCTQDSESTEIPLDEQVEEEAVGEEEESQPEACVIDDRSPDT

IC50: 5.54 ± 0.24 µM
SMILES: COc1cc(-c2ccccc2)c(OC)c(O)c1-c1ccc2c(c1)C=CC(C)(C)O2 [compound 3, Sanshamycin C]
